Data taken from patent US20090030068A1, “Antitumour Compounds” (PHARMA MAR, S.A., priority 2005, published 2009).
Converted amounts (≈) assume the structure as drawn.

Tests used:
L1210 cells = conditions: cited from earlier work
KB cells = conditions: cited from earlier work
P388 leukemia = conditions: cited from earlier work; for antitumor activity / toxicity: P388 leukemia in CDF1 mice
MDA-MB-231 = assay: SRB colorimetric cell growth inhibition assay, MDA-MB-231; format: cell-based
Method: (§1) The assays of antitumor activity allow detecting extracts or compounds with cytotoxic activity (cell death) or cytostatic activity (growth inhibition) in in vitro cultures of tumor cells of human origin.
(§2) The quantification of cell growth in vitro was carried out by means of a calorimetric assay with sulforhodamine B (SRB) (following an adaptation of the previously described method by Philip Skehan et al. 1990, J. Natl. Cancer Inst., 82:1107-1112).
(§3) This type of assay uses 96-well culture microplates, (Mosmann, 1983, Faircloth, 1988). Most of the cell lines used are obtained from the American Type Culture Collection (ATCC) and derived from different types of human tumors.
(§4) The cell cultures are maintained in DMEM culture medium (supplemented with 10% fetal bovine serum (FBS), 1% penicillin/streptomycin 1% glutamine) at 37° C., 5% CO2 and 98% humidity.
(§5) For the assays, the cells are trypsinized and seeded in 96-well microplates at different concentrations depending on the cell line, and are incubated for 24 hours in an active ingredient-free medium for their stabilization. The cultures are then treated (final concentration varies depending on the type of assay) with carrier (DMSO:DMEM, 1:1) or active ingredient. After 48 hours of exposure to the active ingredient, the antitumor effect is measured by means of the previously mentioned SRB method, which basically consists of: fixing the cells with a 1% glutaraldehyde solution (30 min, RT), washing of the fixer in PBS (3 washings, RT), staining the cultures with a 0.4% SRB solution (30 min, RT), washing of the colorant in 1% acetic acid solution (3 washings, RT), air-drying the plates and final extraction of the colorant with Tris buffer. The quantification of the assay is carried out by means of optical density reading of the plates in a spectrophotometric microplate reader at a single wavelength of 490 nm. […]

A549 = assay: SRB colorimetric cell growth inhibition assay, A549; format: cell-based
Method: as §1, §2, §3, §4, §5

HT29 = assay: SRB colorimetric cell growth inhibition assay, HT29; format: cell-based
Method: as §1, §2, §3, §4, §5

MDA-MB-231 cancer cells = conditions: cited from earlier work
P388 cancer cells = conditions: cited from earlier work
HCT-8 cancer cells = conditions: cited from earlier work
A549 cancer cells = conditions: cited from earlier work

Molecule: isoswinholide A
- IC50 (cytotoxicity) (L1210 cells): 1.35 µg/mL
- IC50 (cytotoxicity) (KB cells): 1.1 µg/mL
- antitumor activity (P388 leukemia): did not show promising antitumor activity
- toxicity (P388 leukemia): toxic

Molecule: COC1CC(C)OC(CCC(C)C(O)C(C)C2OC(=O)/C=C/C(C)=C/CC(O)CC3C=CCC(CC(OC)C(C)C(O)CC(O)C(C)C(C(C)C(O)C(C)CCC4CC(OC)CC(C)O4)OC(=O)/C(C)=C/CC(O)CC4C=CCC(CC(OC)C(C)C(O)CC(O)C2C)O4)O3)C1 (stereo not shown) [Compound A]
- TGI (MDA-MB-231; Breast MDA-MB-231, 48 hours of exposure, concentration causing total growth inhibition): 2.35E−6 Molar
- CC50 (MDA-MB-231; Homo sapiens, MDA-MB-231, 48 h, read-out: LC50): 4770 nM
- GI50 (MDA-MB-231; Homo sapiens, Breast MDA-MB-231, 48 hours of exposure, concentration causing 50% growth inhibition): 808 nM
- CC50 (A549; Homo sapiens, A549, 48 h, read-out: LC50): 529 nM
- GI50 (A549; Homo sapiens, NSCL (Lung) A549, 48 hours of exposure, concentration causing 50% growth inhibition): 228 nM
- TGI (A549; NSCL (Lung) A549, 48 hours of exposure, concentration causing total growth inhibition): 3.38E−7 Molar
- TGI (HT29; Colon HT29, 48 hours of exposure, concentration causing total growth inhibition): 8.81E−7 Molar
- LC50 (concentration killing 50% of cells) (HT29; Homo sapiens, HT-29, 48 h, read-out: LC50): 2200 nM
- GI50 (HT29; Homo sapiens, HT-29, Colon HT29, 48 hours of exposure, concentration causing 50% growth inhibition): 338 nM

Molecule: COC1CC(C)OC(CCC(C)C(O)C(C)C2OC(=O)/C=C\C(C)=C\CC(O)CC3C=CCC(CC(OC)C(C)C(O)CC(O)C(C)C(C(C)C(O)C(C)CCC4CC(O)CC(C)O4)OC(=O)/C=C\C(C)=C\CC(O)CC4C=CCC(CC(OC)C(C)C(O)CC(O)C2C)O4)O3)C1 (stereo not shown) [Swinholide C]
- IC50 (cytotoxicity) (L1210 cells): 0.14 µg/mL (≈ 0.102 µM)
- IC50 (cytotoxicity) (KB cells): 0.05 µg/mL (≈ 0.0363 µM)

Molecule: CO[C@H]1C[C@H](CC[C@H](C)[C@H](O)[C@H](C)[C@H]2OC(=O)/C=C/C(C)=C/C[C@H](O)C[C@@H]3C=CC[C@@H](C[C@H](OC)[C@@H](C)[C@@H](O)C[C@@H](O)[C@H](C)[C@@H]([C@@H](C)[C@@H](O)[C@@H](C)CC[C@H]4C[C@H](OC)C[C@H](C)O4)OC(=O)/C=C/C(C)=C/C[C@H](O)C[C@@H]4C=CC[C@@H](C[C@H](OC)[C@@H](C)[C@@H](O)C[C@@H](O)[C@@H]2C)O4)O3)O[C@@H](C)C1 [Swinholide A]
- IC50 (cytotoxicity) (L1210 cells): 0.03 µg/mL (≈ 0.0216 µM)
- IC50 (cytotoxicity) (KB cells): 0.04 µg/mL (≈ 0.0288 µM)
- antitumor activity (P388 leukemia): did not show promising antitumor activity
- toxicity (P388 leukemia): toxic

Molecule: CO[C@H]1C[C@H](CC[C@H](C)[C@H](O)[C@H](C)[C@H]2OC(=O)/C(C)=C/C[C@H](O)C[C@@H]3C=CC[C@@H](C[C@H](OC)[C@@H](C)[C@@H](O)C[C@@H](O)[C@H](C)[C@@H]([C@@H](C)[C@@H](O)[C@@H](C)CC[C@H]4C[C@H](OC)C[C@H](C)O4)OC(=O)/C(C)=C/C[C@H](O)C[C@@H]4C=CC[C@@H](C[C@H](OC)[C@@H](C)[C@@H](O)C[C@@H](O)[C@@H]2C)O4)O3)O[C@@H](C)C1 [Misakinolide A]
- IC50 (cytotoxicity) (L1210 cells): 0.035 µg/mL (≈ 0.0262 µM)
- in vitro antitumor activity (MDA-MB-231 cancer cells): in vitro antitumor activity
- in vitro antitumor activity (P388 cancer cells): in vitro antitumor activity
- in vitro antitumor activity (HCT-8 cancer cells): in vitro antitumor activity
- in vitro antitumor activity (A549 cancer cells): in vitro antitumor activity
- T/C (P388 leukemia; dose of 0.1 mg/kg (mouse), P388 leukemia): 140%
